Results as given in patent US6762181B1, “Aminomethylpyrrolidine derivatives having aromatic substituents” (Daiichi Pharmaceutical Co., Ltd., priority 1999, dated 2004).
≈ marks a conversion by molar mass, not a printed value. Read-outs that look alike come from different tables or passages of the source.

Key:
Assay in all cases: Antibacterial activity (MIC), Japan Society of Chemotherapy standard method
Type in all cases: cell-based
Ps. aeruginosa 32121 = system: Ps. aeruginosa 32121
Method: (§1) Antibacterial activities of the compounds of the invention were measured in accordance with the standard method specified by the Japan Society of Chemotherapy, with the results shown in the following table as MIC values (μg/ml). In this connection, MIC values of levofloxacin (LVFX), ciprofloxacin (CPFX) and 5-amino-7-[3-(R)-[1-(S)-aminoethyl]pyrrolidin-1-yl]-6-fluoro-1-[2-(S)-fluoro-1-(R)-cyclopropyl]-8-methyl-1,4-dihydro-4-oxoquinoline-3-carboxylic acid (control drug 1) described in WO 9623782 are also shown for the sake of comparison with the MIC values of the compounds of the invention.

S. epidermidis 56500 = system: S. epidermidis 56500
Method: as §1

Str. pneumoniae J24 = system: Str. pneumoniae J24
Method: as §1

Pr. Vulgaris O8601 = system: Pr. Vulgaris O8601
Method: as §1

Ser. marcescens 10100 = system: Ser. marcescens 10100
Method: as §1

S. aureus FDA 209P = system: S. aureus FDA 209P
Method: as §1

Str. pyrogenes G-36 = system: Str. pyrogenes G-36
Method: as §1

E. faecalis ATCC 19433 = system: E. faecalis ATCC 19433
Method: as §1

S. flexneri 2A 5503 = system: S. flexneri 2A 5503
Method: as §1

S. aureus 870307 = system: S. aureus 870307
Method: as §1

E. coli NIHJ = system: E. coli NIHJ
Method: as §1

X. maltophilia IID 1275 = system: X. maltophilia IID 1275
Method: as §1

K. pneumoniae TYPE 1 = system: K. pneumoniae TYPE 1
Method: as §1

Ps. aeruginosa 32104 = system: Ps. aeruginosa 32104
Method: as §1

[1] = Pseudomonas aeruginosa, 32121, Ps. aeruginosa 32121, read-out: MIC
[2] = Staphylococcus epidermidis, read-out: MIC
[3] = Streptococcus pneumoniae, J24, Str. pneumoniae J24, read-out: MIC
[4] = Proteus vulgaris, read-out: MIC
[5] = Serratia marcescens, 10100, Ser. marcescens 10100, read-out: MIC
[6] = Staphylococcus aureus, FDA209P, read-out: MIC
[7] = Enterococcus faecalis, ATCC19433, E. faecalis ATCC 19433, read-out: MIC
[8] = Shigella flexneri, 2A5503, S. flexneri 2A 5503, read-out: MIC
[9] = Staphylococcus aureus, 870307, S. aureus 870307, read-out: MIC
[10] = Escherichia coli, read-out: MIC
[11] = Stenotrophomonas maltophilia, IID1275, X. maltophilia IID 1275, read-out: MIC
[12] = Klebsiella pneumoniae, TYPE1, K. pneumoniae TYPE 1, read-out: MIC
[13] = Pseudomonas aeruginosa, 32104, Ps. aeruginosa 32104, read-out: MIC

O=C(O)c1cn(C2CC2)c2cc(N3CCNCC3)c(F)cc2c1=O [CPFX, ciprofloxacin, reference compound]
MIC (Ps. aeruginosa 32121; [1]): 0.025 µg/mL (≈ 0.0754 µM)
MIC (S. epidermidis 56500; [2]): 0.2 µg/mL (≈ 0.604 µM)
MIC (Str. pneumoniae J24; [3]): 0.1 µg/mL (≈ 0.302 µM)
MIC (Pr. Vulgaris O8601; [4]): ≤ 0.003 µg/mL
MIC (Ser. marcescens 10100; [5]): 0.025 µg/mL (≈ 0.0754 µM)
MIC (S. aureus FDA 209P; [6]): 0.1 µg/mL (≈ 0.302 µM)
MIC (Str. pyrogenes G-36; read-out: MIC): 1.56 µg/mL (≈ 4.71 µM)
MIC (E. faecalis ATCC 19433; [7]): 0.78 µg/mL (≈ 2.35 µM)
MIC (S. flexneri 2A 5503; [8]): 6 ng/mL (≈ 0.0181 µM)
MIC (S. aureus 870307; [9]): 3.13 µg/mL (≈ 9.45 µM)
MIC (E. coli NIHJ; [10]): ≤ 3 ng/mL
MIC (X. maltophilia IID 1275; [11]): 0.78 µg/mL (≈ 2.35 µM)
MIC (K. pneumoniae TYPE 1; [12]): 0.025 µg/mL (≈ 0.0754 µM)
MIC (Ps. aeruginosa 32104; [13]): 0.05 µg/mL (≈ 0.151 µM)

Cc1c(N2CC[C@@H](C(N)c3ccccc3)C2)c(F)c(N)c2c(=O)c(C(=O)O)cn([C@@H]3C[C@@H]3F)c12 (stereo partly drawn) [Example 5, 5-Amino-7-[3-(R)-(1-Amino-1-Phenylmethyl)-1-Pyrrolidinyl]-6-Fluoro-1-[2-(S)-Fluoro-1-(R)-Cyclopropyl]-1,4-Dihydro-8-Methyl-4-Oxoquinoline-3-Carboxylic Acid]
MIC (Ps. aeruginosa 32121; [1]): 0.025 µg/mL (≈ 0.0534 µM)
MIC (S. epidermidis 56500; [2]): ≤ 0.003 µg/mL
MIC (Str. pneumoniae J24; [3]): ≤ 0.003 µg/mL
MIC (Pr. Vulgaris O8601; [4]): 0.013 µg/mL (≈ 0.0277 µM)
MIC (Ser. marcescens 10100; [5]): 0.025 µg/mL (≈ 0.0534 µM)
MIC (S. aureus FDA 209P; [6]): ≤ 0.003 µg/mL
MIC (Str. pyrogenes G-36; read-out: MIC): ≤ 0.003 µg/mL
MIC (E. faecalis ATCC 19433; [7]): 0.006 µg/mL (≈ 0.0128 µM)
MIC (S. flexneri 2A 5503; [8]): ≤ 3 ng/mL
MIC (S. aureus 870307; [9]): ≤ 0.003 µg/mL
MIC (E. coli NIHJ; [10]): ≤ 3 ng/mL
MIC (X. maltophilia IID 1275; [11]): 0.025 µg/mL (≈ 0.0534 µM)
MIC (K. pneumoniae TYPE 1; [12]): 0.013 µg/mL (≈ 0.0277 µM)
MIC (Ps. aeruginosa 32104; [13]): 0.1 µg/mL (≈ 0.213 µM)

Nc1c(F)c(N2CC[C@@H](C(N)c3ccccn3)C2)c(F)c2c1c(=O)c(C(=O)O)cn2[C@@H]1C[C@@H]1F (stereo partly shown) [Example 16]
MIC (Ps. aeruginosa 32121; Ps. aeruginosa 32121): 0.05 µg/mL (≈ 0.106 µM)
MIC (S. epidermidis 56500): ≦0.003 μg/ml
MIC (Str. pneumoniae J24; Str. pneumoniae J24): ≦0.003 μg/ml
MIC (Pr. Vulgaris O8601): 0.025 µg/mL (≈ 0.0528 µM)
MIC (Ser. marcescens 10100; Ser. marcescens 10100): 0.1 µg/mL (≈ 0.211 µM)
MIC (S. aureus FDA 209P): ≦0.003 μg/ml
MIC (Str. pyrogenes G-36): ≦0.003 μg/ml
MIC (E. faecalis ATCC 19433; E. faecalis ATCC 19433): 0.013 µg/mL (≈ 0.0275 µM)
MIC (S. flexneri 2A 5503; S. flexneri 2A 5503): ≦0.003 μg/ml
MIC (S. aureus 870307; S. aureus 870307): 0.006 µg/mL (≈ 0.0127 µM)
MIC (E. coli NIHJ): ≦0.003 μg/ml
MIC (X. maltophilia IID 1275; X. maltophilia IID 1275): 0.1 µg/mL (≈ 0.211 µM)
MIC (K. pneumoniae TYPE 1; K. pneumoniae TYPE 1): 0.025 µg/mL (≈ 0.0528 µM)
MIC (Ps. aeruginosa 32104; Ps. aeruginosa 32104): 0.2 µg/mL (≈ 0.422 µM)

Nc1c(F)c(N2CC[C@@H](C(N)c3ccccc3)C2)c(F)c2c1c(=O)c(C(=O)O)cn2[C@@H]1C[C@@H]1F (single isomer, unassigned) [Example 2]
MIC (Ps. aeruginosa 32121; Ps. aeruginosa 32121): 0.025 µg/mL (≈ 0.0529 µM)
MIC (S. epidermidis 56500): ≦0.003 μg/ml
MIC (Str. pneumoniae J24; Str. pneumoniae J24): ≦0.003 μg/ml
MIC (Pr. Vulgaris O8601): 0.025 µg/mL (≈ 0.0529 µM)
MIC (Ser. marcescens 10100; Ser. marcescens 10100): 0.05 µg/mL (≈ 0.106 µM)
MIC (S. aureus FDA 209P): ≦0.003 μg/ml
MIC (Str. pyrogenes G-36): ≦0.003 μg/ml
MIC (E. faecalis ATCC 19433; E. faecalis ATCC 19433): 0.006 µg/mL (≈ 0.0127 µM)
MIC (S. flexneri 2A 5503; S. flexneri 2A 5503): ≦0.003 μg/ml
MIC (S. aureus 870307; S. aureus 870307): ≦0.003 μg/ml
MIC (E. coli NIHJ): ≦0.003 μg/ml
MIC (X. maltophilia IID 1275; X. maltophilia IID 1275): 0.025 µg/mL (≈ 0.0529 µM)
MIC (K. pneumoniae TYPE 1; K. pneumoniae TYPE 1): 0.013 µg/mL (≈ 0.0275 µM)
MIC (Ps. aeruginosa 32104; Ps. aeruginosa 32104): 0.1 µg/mL (≈ 0.212 µM)

Cc1c(N2CC[C@@H](C(N)c3ccccn3)C2)c(F)c(N)c2c(=O)c(C(=O)O)cn([C@@H]3C[C@@H]3F)c12 (stereo partly drawn) [Example 17, 5-Amino-7-{3-(R)-[1-amino-1-(2-pyridyl)methyl]-1-pyrrolidiny}-6-fluoro-1-[(1R, 2S)-2-fluorocyclopropyl)-1,4-dihydro-8-methyl-4-oxoquinoline-3-carboxylic acid]
MIC (Ps. aeruginosa 32121; Ps. aeruginosa 32121): 0.1 µg/mL (≈ 0.213 µM)
MIC (S. epidermidis 56500): ≦0.003 μg/ml
MIC (Str. pneumoniae J24; Str. pneumoniae J24): ≦0.003 μg/ml
MIC (Pr. Vulgaris O8601): 0.05 µg/mL (≈ 0.106 µM)
MIC (Ser. marcescens 10100; Ser. marcescens 10100): 0.1 µg/mL (≈ 0.213 µM)
MIC (S. aureus FDA 209P): ≦0.003 μg/ml
MIC (Str. pyrogenes G-36): ≦0.003 μg/ml
MIC (E. faecalis ATCC 19433; E. faecalis ATCC 19433): 0.025 µg/mL (≈ 0.0532 µM)
MIC (S. flexneri 2A 5503; S. flexneri 2A 5503): 6 ng/mL (≈ 0.0128 µM)
MIC (S. aureus 870307; S. aureus 870307): 0.013 µg/mL (≈ 0.0277 µM)
MIC (E. coli NIHJ): ≦0.003 μg/ml
MIC (X. maltophilia IID 1275; X. maltophilia IID 1275): 0.05 µg/mL (≈ 0.106 µM)
MIC (K. pneumoniae TYPE 1; K. pneumoniae TYPE 1): 0.05 µg/mL (≈ 0.106 µM)
MIC (Ps. aeruginosa 32104; Ps. aeruginosa 32104): 0.2 µg/mL (≈ 0.426 µM)
